Source: patent US4188398A, “Method for treating epilepsy” (priority 1978, dated 1980)

Experiments:
[1] = Neurotoxicity: rightening, gait, stance, muscle tone and equilibrium tests; type: in vivo; settings: P = 0.05
Method: The neurotoxicity levels were determined by conducting rightening, gait, stance, muscle tone and equilibrium tests.

[2] = Clinical study in epilepsy patients; type: in vivo, human (patients)
Method: The therapeutic effectiveness of the preparation was evaluated while treating different forms of epilepsy.
The patient's age was between 4 and 56 years with the period of sickness ranging from 2 to 18 years. The different forms of the disease fell into the following categories according to clinical and encephalographic data: polymorphous fits with a deep temporal or frontotemporal focus of epileptic activity; psychomotor fits of pseudo absentia epileptica; generalized tonico-clonic convulsive fits; true absentia epileptica with myoclonic atonic fits and cerebrovascular diseases of the central nervous system, resulting in temporal epileptic fits and polymorphous fits.
The duration of the course of treatment varied from 3 months to 3 years.
The preparation of the present invention was administered per os 3 to 6 times a day; each time a patient was given a tablet of 0.25 g so that the daily dose of the preparation was 0.75 to 1.5 g. […] In a group of 40 patients, examination of other electroencephalographic convulsive manifestations was accompanied by studying focal paroxysmal phenomena in the temporal lobes.

animal or person = assay: animal or person
Method: The general effect of the proposed preparation was tested on white mice, rats and rabbits.

[3] = Teratogenic and embryotoxic tests (A. M. Chernukh's method); type: in vivo, mongrel white female rats; settings: 400 mg/kg per os, rats
Method: Teratogenic and embryotoxic tests of the proposed preparation were carried out by using A. M. Chernukh's method on 35 mongrel white female rats weighing 150 to 200 g. The preparation was introduced per os in a dose of 400 mg/kg.
On the twentieth day of pregnancy, all the animals were decapitated.

[4] = Single versus multiple administration, antagonism to corazol (addiction / habit forming); type: in vivo

Method for Corazol convulsion test: The anticonvulsant action of the proposed preparation was tested on mice weighing 19 to 25 g and rats weighing 120 to 150 g by conducting maximum electroshock, corazol, strychnine, camphor, nicotine and arecoline tests.

In the case of `CC(C)Oc1ccc(C2CC(=O)NC2=O)cc1` (stereo not drawn) [proposed preparation, α-/para-isopropoxyphenyl/succinimide], the “TD50 (mean neurotoxic dose)” value ([1]; listed as Preparation according to invention) is reported as 720(588 to 883) mg/kg, the TD50 ([1]; in vivo, read-out: TD50 (mean neurotoxic dose)) is reported as 720 mg/kg and the “insomnia and disturbed sleep” value ([2]; administered shortly before bedtime) is reported as “almost all the patients complained of insomnia and disturbed sleep”. For the same compound, the “itching of the skin, weakness and dizziness” value ([2]; after 3 or 4 days of treatment) was “very few cases”, the “time to discontinuation or lower frequency of seizures” value ([2]; after beginning of treatment, dose of 0.25 g) was 7 to 8 days and the “therapeutic effect in convulsive forms of epilepsy” value ([2]; cases of diffusive electroencephalographic pathology) was “week therapeutic effect”. The “effect in secondary generalized seizures” value ([2]; clinically and electroencephalographically established focal changes) was “ineffective”, the “depressing action upon the central nervous system” value ([2]; compared with other antiepileptic drugs) was “not as intense as that of other antiepileptic drugs” and the “patients in whom fits discontinued” value ([2]; group of 40 patients, after 10 to 14 days, per os 0.75 to 1.5 g daily) was 18 patients. For the same compound, the “anticonvulsive effect versus milontin and celontin in psychomotor and convulsive fits” value ([2]; human, in vivo) was “somewhat more effective”, the “effect on minor epileptic fits associated with anterior trunkal localization of the epileptic focus” value ([2]; human, in vivo) was “the most effective in stopping minor epileptic fits” and the “increased frequency of fits” value ([2]; human, in vivo) was “never resulted in an increased frequency of fits”. The nausea ([2]; human, in vivo) was “Some patients complained of nausea”, the “potentiating effect upon convulsive paroxysms” value ([2]; human, in vivo) was “absence of a potentiating effect upon convulsive paroxysms” and the “weakness or dizziness in the day time” value ([2]; human, in vivo) was “does not cause weakness or dizziness in the day time”. The sleep ([2]; last dose 3 or 4 hours before bedtime) was “normal sleep was soon restored”, the “allergic manifestations or somatic abnormalities” value ([2]; patients) was “no allergic manifestations or somatic abnormalities were observed” and the “effect on ambivalence of reactions, ability for mental work and night sleep” value ([2]; patients) was “improves the ambivalence of reactions and the ability for mental work; night sleep becomes deeper and longer”. For the same compound, the “effect on mood, affectivity, anxieties, stresses” value ([2]; patients) was “improves the general mood of patients, reduces affectivity, eliminates anxieties and relieves stresses”, the “effect upon aggressive, quarrelsome and importune epileptics” value ([2]; patients) was “soothing effect” and the “laboratory analyses of blood and urine” value ([2]; patients) was “no pathological changes”. For the same compound, the “pathologic changes in the blood system” value ([2]; patients) was “no pathologic changes in the blood system”, the “therapeutic effect in polymorphous paroxysms and fits of the temporal type” value ([2]; per os 0.75 to 1.5 g daily) was “the most effective in cases of polymorphous paroxysms and fits of the temporal type” and the “memory of actual events” value ([2]; psychologic examination) was “improves the memory of actual events”. For the same compound, the “reduction of frequency of fits” value ([2]; remaining 22 of 40 patients, per os 0.75 to 1.5 g daily) was “reduced from 3 to 4 a week to 2 to 3 a month”, the sedative effect ([2]; single doses of 0.5 g) was “weak and short-lived sedative effect” and the toxic neurological complications ([2]; uninterrupted courses up to eight months) was “does not result in any toxic neurological complications”. For the same compound, the minimal effective dose (animal or person; Mus musculus, ip, read-out: least dose to produce a noticeable effect on the animals' behavior) was 200 mg/kg, the “effect on general state of the animals per os versus intraperitoneal” value (animal or person; per os, animals (mice, rats, rabbits)) was “not as marked as in the case of intraperitoneal administration” and the “dose inducing lying position and sleep” value (animal or person; white mice, intraperitoneal) was “more than 1,000 milligrams per kilogram of weight”. For the same compound, the development of pregnancy [3] was “the pregnancy developed normally”, the “abnormalities in embryos' growth, internal organs and skeletons” value ([3]; twentieth day of pregnancy) was “did not reveal any abnormalities in their growth” and the ED50 (Corazol convulsion test; Mus musculus, read-out: ED50 (corazol)) was 86 mg/kg. For the same compound, the “protection index I=TD50/ED50, Corazol” value (Corazol convulsion test; corazol) was 8.38, the “protection index PI (mean lethal dose / mean effective dose), Corazol” value (Corazol convulsion test; corazol) was 25 and the “antistrychnine effect, ranking of the three drugs” value (in words) was “the most pronounced”. For the same compound, the “ED50 (strychnine)” value (strychnine) was 110 mg/kg, the “protection index I=TD50/ED50, Strychnine” value (strychnine) was 6.55 and the “protection index PI (mean lethal dose / mean effective dose), Strychnine” value (strychnine) was 19.55. The habit forming properties [4] was “devoid of habit forming properties”.
